Calls of active or inactive are those of the source. The rule behind the calls is not given here.
Key:
[1] = molecular target: T1, Muscarinic acetylcholine receptor M4 (Mus musculus) (UniProt P32211); assay: Agonist activity at muscarinic M4 receptor in wild type mouse hippocampal CA1 pyramidal neuron assessed as reduction of excitatory postsynaptic current at 100 uM by whole-cell electrophysiology relative to control; format: functional, tissue-based; conditions: Hippocampus
T1 sequence (whole entry): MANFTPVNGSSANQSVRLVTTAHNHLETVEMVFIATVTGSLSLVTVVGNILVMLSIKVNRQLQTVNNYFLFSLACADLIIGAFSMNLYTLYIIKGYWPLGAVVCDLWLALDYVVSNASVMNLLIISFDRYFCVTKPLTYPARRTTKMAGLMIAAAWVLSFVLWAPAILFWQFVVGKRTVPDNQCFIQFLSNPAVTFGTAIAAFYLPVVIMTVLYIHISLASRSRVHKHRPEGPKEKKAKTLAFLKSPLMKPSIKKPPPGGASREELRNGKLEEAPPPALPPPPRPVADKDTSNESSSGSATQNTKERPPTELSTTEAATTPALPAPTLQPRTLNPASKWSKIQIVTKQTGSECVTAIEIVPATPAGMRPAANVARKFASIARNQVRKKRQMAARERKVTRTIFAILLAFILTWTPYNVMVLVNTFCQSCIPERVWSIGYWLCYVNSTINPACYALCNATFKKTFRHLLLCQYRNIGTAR

[2] = molecular target: T2, Muscarinic acetylcholine receptor M5 (Rattus norvegicus) (UniProt P08911); assay: Allosteric activation of rat recombinant muscarinic M5 receptor expressed in CHO cells assessed as potentiation of acetylcholine-induced calcium mobilization at 10 uM after 1 hr by fluorescence assay; format: functional, cell-based
T2 sequence (whole entry): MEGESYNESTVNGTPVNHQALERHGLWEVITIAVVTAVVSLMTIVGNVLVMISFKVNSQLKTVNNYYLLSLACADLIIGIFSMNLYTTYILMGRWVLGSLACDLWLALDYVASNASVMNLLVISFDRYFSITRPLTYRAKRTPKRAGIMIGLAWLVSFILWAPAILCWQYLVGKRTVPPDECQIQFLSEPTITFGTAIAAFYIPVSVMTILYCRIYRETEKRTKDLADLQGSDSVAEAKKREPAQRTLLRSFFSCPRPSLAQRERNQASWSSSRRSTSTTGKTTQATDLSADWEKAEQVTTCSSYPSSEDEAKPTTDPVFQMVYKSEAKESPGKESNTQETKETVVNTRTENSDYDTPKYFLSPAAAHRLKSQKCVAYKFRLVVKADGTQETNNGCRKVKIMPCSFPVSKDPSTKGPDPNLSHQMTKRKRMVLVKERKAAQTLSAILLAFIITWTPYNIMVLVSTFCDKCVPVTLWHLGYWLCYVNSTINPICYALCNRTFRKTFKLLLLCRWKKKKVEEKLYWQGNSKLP

[3] = Agonist activity at muscarinic receptor in M4 receptor knock out mouse hippocampal CA1 pyramidal neuron assessed as reduction of excitatory postsynaptic current amplitude at 100 uM by whole-cell electrophysiology relative to control; format: functional; conditions: Hippocampus
[4] = molecular target: T1, Muscarinic acetylcholine receptor M4 (Mus musculus); assay: Agonist activity at muscarinic M4 receptor in wild type mouse hippocampal CA1 pyramidal neuron assessed as increase in carbachol-induced reduction in excitatory postsynaptic current at 5 uM by whole-cell electrophysiology relative to control; format: functional, tissue-based; set-up: scale not given: the % may be the effect or the level left; conditions: Hippocampus
[5] = molecular target: T3, Muscarinic acetylcholine receptor M4 (Rattus norvegicus) (UniProt P08485); assay: Agonist activity at muscarinic M4 receptor in Sprague-Dawley rat hippocampal CA1 pyramidal neuron assessed as reduction of excitatory postsynaptic current at 100 uM by whole-cell electrophysiology relative to control; format: functional, tissue-based; conditions: Hippocampus
T3 sequence (whole entry): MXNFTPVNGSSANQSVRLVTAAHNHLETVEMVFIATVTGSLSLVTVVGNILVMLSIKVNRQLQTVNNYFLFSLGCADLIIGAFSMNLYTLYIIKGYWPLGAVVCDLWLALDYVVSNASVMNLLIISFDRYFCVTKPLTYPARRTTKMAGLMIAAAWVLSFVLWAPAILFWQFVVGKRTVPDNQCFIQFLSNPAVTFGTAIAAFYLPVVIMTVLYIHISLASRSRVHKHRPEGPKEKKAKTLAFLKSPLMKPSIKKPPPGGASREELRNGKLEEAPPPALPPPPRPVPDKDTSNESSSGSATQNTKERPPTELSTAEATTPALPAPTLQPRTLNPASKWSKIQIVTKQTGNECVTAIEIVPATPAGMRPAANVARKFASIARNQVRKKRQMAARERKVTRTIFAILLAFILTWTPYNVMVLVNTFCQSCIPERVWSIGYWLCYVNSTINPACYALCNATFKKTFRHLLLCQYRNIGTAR

[6] = molecular target: T3, Muscarinic acetylcholine receptor M4 (Rattus norvegicus); assay: Agonist activity at muscarinic M4 receptor in Sprague-Dawley rat hippocampal CA1 pyramidal neuron assessed as increase in carbachol-induced reduction in excitatory postsynaptic current at 10 uM by whole-cell electrophysiology relative to control; format: functional, tissue-based; set-up: scale not given: the % may be the effect or the level left; conditions: Hippocampus
[7] = molecular target: T3, Muscarinic acetylcholine receptor M4 (Rattus norvegicus); assay: Agonist activity at muscarinic M4 receptor in Sprague-Dawley rat hippocampal CA1 pyramidal neuron assessed as reduction of inhibitory postsynaptic current at 100 uM by whole-cell electrophysiology relative to control; format: functional, tissue-based; conditions: Hippocampus
[8] = molecular target: T4, Muscarinic acetylcholine receptor M4 (Rattus norvegicus, UniProt P08485); assay: Allosteric activation of rat recombinant muscarinic M4 receptor expressed in CHO cells assessed as potentiation of 10 uM acetylcholine-induced calcium mobilization after 1 hr by fluorescence assay; format: functional, cell-based
T4 sequence (P08485 whole entry): T3 sequence (whole entry)

CHO = assay: Antagonist activity at P2Y1 receptor in CHO cells assessed as calcium mobilization at 10 uM after 1 hr by fluorescence assay; format: functional, cell-based; conditions: Cricetulus griseus
[9] = molecular target: T3, Muscarinic acetylcholine receptor M4 (Rattus norvegicus); assay: Allosteric activation of rat recombinant muscarinic M4 receptor expressed in CHO cells assessed as […] in acetylcholine EC50 for induction of calcium mobilization at 10 uM after 1 hr by fluorescence assay; format: functional, cell-based
[10] = molecular target: T5, Muscarinic acetylcholine receptor M2 (Rattus norvegicus) (UniProt P10980); assay: Allosteric activation of rat recombinant muscarinic M2 receptor expressed in CHO cells assessed as potentiation of acetylcholine-induced calcium mobilization at 10 uM after 1 hr by fluorescence assay; format: functional, cell-based
T5 sequence (whole entry): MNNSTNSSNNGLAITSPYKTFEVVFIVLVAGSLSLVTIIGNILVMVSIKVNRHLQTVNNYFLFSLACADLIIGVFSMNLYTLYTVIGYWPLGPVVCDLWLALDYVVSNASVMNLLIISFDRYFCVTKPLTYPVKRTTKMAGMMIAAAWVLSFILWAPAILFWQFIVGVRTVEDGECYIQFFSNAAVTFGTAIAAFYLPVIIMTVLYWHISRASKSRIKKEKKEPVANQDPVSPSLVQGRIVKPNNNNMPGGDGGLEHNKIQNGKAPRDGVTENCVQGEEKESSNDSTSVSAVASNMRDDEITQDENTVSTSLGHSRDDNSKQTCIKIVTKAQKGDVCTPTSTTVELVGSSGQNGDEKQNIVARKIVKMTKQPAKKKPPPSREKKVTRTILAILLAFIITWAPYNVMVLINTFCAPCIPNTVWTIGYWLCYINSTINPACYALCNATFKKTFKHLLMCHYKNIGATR

[11] = molecular target: T3, Muscarinic acetylcholine receptor M4 (Rattus norvegicus); assay: Allosteric activation of rat recombinant muscarinic M4 receptor expressed in CHO cells assessed as fold decrease in acetylcholine Ki for displacement of [3H]NMS from active binding site after 2 hrs by microplate scintillation counting; format: cell-based

Compound: Cc1cc(C)c2c(N)c(C(=O)NCc3ccc(Cl)cc3)sc2n1
- inhibition [1]: 18%
- Activity [2]: inactive
- inhibition at 100 µM [3]: 21.1%
- Activity [4]: 39.8%
- inhibition [5]: 16.1%
- Activity [6]: 42.7%
- inhibition [7]: 10.9%
- EC50 [8]: 400 nM
- Activity (CHO): inactive
- fold change (FC) [9]: 47
- Activity [10]: inactive
- Activity [11]: Dose-dependent effect

Reference: ChEMBL document CHEMBL1212695, “An allosteric potentiator of M4 mAChR modulates hippocampal synaptic transmission” (Nat Chem Biol, 2008)
